Read-outs that look alike come from different tables or passages of the source. One block for each compound: values may come before it.
What was measured:
[1] = system: rats; settings: rat, in vivo, cited from earlier work
[2] = target: T1, Steroid sulphatase (Homo sapiens, UniProt P08842); settings: cited from earlier work
T1 sequence (P08842 22-583): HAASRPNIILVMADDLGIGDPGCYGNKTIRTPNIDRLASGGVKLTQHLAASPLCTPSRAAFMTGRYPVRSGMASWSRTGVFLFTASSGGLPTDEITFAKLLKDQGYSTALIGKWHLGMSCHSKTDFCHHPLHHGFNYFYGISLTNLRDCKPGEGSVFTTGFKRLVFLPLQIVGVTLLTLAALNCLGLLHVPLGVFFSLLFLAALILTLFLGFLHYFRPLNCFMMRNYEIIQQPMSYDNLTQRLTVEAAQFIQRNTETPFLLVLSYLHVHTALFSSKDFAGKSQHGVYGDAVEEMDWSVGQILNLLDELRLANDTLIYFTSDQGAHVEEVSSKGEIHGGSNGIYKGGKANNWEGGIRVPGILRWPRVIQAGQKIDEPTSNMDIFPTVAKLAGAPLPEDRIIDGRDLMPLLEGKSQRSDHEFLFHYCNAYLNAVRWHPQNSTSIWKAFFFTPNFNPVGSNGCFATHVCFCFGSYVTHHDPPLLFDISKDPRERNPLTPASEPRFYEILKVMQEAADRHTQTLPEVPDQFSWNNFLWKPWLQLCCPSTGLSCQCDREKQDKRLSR

[3] = cited from earlier work
[4] = target: T2, E1-STS (Homo sapiens, UniProt P08842); settings: intact MCF-7 cells, 0.1 nM; cited from earlier work
T2 construct: endogenous in cells; host or cells: MCF-7 cells
T2 sequence (P08842 22-583): T1 sequence (P08842 22-583)

[5] = target: T3, rat liver E1-STS (Rattus norvegicus, UniProt P15589); settings: administered orally or subcutaneously; cited from earlier work
T3 construct: from tissue; host or cells: rat liver
T3 sequence (P15589 20-577): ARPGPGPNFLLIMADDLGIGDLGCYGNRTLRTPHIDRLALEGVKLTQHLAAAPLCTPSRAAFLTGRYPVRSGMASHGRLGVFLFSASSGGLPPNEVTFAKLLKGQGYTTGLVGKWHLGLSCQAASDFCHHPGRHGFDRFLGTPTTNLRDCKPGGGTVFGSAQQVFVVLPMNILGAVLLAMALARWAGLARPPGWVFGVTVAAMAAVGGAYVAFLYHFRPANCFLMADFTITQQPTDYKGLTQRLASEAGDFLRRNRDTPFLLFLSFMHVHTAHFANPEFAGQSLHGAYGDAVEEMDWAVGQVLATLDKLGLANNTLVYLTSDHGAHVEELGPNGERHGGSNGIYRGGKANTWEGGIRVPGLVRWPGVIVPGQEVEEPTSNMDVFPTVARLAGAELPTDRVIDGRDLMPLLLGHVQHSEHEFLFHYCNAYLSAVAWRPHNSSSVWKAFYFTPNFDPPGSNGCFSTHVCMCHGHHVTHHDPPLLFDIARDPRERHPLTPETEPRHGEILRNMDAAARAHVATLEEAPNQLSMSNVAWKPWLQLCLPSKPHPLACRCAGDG

[6] = target: T4, rat liver DHEA-STS (Rattus norvegicus, UniProt P15589); settings: administered orally or subcutaneously; cited from earlier work
T4 construct: rat liver E1-STS (99%) and DHEA-STS (99%) activities; from tissue; host or cells: rat liver
T4 sequence (P15589 20-577): T3 sequence (P15589 20-577)

[7] = target: T1, Steroid sulphatase; assay: Inhibition of steroid sulphatase activity in intact JEG3 cells (Protocol 1); type: cell-based; design: host or cells: JEG3 choriocarcinoma cells; settings: read-out: JEG3 cells IC50 Sulfatase
Protocol: Assay for Determining STS Activity Using Cancer Cells
Inhibition of Steroid Sulphatase Activity in JEG3 Cells
Steroid sulphatase activity is measured in vitro using intact JEG3 choriocarcinoma cells. This cell line may be used to study the control of human breast cancer cell growth.
Cells are maintained in Minimal Essential Medium (MEM) (Flow Laboratories, Irvine, Scotland) containing 20 mM HEPES, 5% foetal bovine serum, 2 mM glutamine, non-essential amino acids and 0.075% sodium bicarbonate. Up to 30 replicate 25 cm2 tissue culture flasks are seeded with approximately 1×10^5 cells/flask using the above medium. Cells are grown to 80% confluency and the medium is changed every third day.
Intact monolayers of JEG3 cells in triplicate 25 cm^2 tissue culture flasks are washed with Earle's Balanced Salt Solution (EBSS from ICN Flow, High Wycombe, U.K.) and incubated for 3-4 hours at 37° C. with 5 pmol (7×10^5 dpm) [6,7-3H]oestrone-3-sulphate (specific activity 60 Ci/mmol from New England Nuclear, Boston, Mass., U.S.A.) in serum-free MEM (2.5 ml) together with oestrone-3-sulphamate (11 concentrations: 0; 1 fM; 0.01 pM; 0.1 pM; 1 pM; 0.01 nM; 0.1 nM; 1 nM; 0.01 mM; 0.1 mM; 1 mM). […] A portion (2 ml) of the organic phase is removed, evaporated and the 3H and 14C content of the residue determined by scintillation spectrometry. […]

[8] = target: T5, Aromatase (Homo sapiens, UniProt P11511); assay: Aromatase activity in intact JEG3 choriocarcinoma cells (Protocol 6); type: cell-based
T5 construct: Aromatase activity is measured in JEG3 choriocarcinoma cells, obtained from the ATCC; host or cells: JEG3 choriocarcinoma cells
T5 sequence (P11511 1-503): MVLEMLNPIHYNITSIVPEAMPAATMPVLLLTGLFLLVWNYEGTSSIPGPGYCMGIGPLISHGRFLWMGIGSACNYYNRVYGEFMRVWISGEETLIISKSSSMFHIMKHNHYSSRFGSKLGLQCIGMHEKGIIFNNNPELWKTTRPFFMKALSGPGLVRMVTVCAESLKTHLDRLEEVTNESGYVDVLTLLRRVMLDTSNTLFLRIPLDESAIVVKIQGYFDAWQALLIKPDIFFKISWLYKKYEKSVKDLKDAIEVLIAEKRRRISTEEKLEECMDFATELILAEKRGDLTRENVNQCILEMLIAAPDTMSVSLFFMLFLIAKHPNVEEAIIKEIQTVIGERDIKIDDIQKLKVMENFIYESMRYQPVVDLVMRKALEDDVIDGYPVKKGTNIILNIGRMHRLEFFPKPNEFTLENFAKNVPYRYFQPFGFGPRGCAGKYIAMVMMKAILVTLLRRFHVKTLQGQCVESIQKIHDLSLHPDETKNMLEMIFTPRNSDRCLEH

melting point: 217.5 to 219 °C
Structure (SMILES): COc1ccc(C(c2ccc(OC)c(O)c2)n2cncn2)cc1O

Structure (SMILES): COc1cc2c(cc1OS(N)(=O)=O)CC[C@@H]1[C@@H]2CC[C@]2(C)C(=O)CC[C@@H]12 [2-methoxyoestrone-3-O-sulphamate]
oestrogenicity [1]: devoid of oestrogenicity | potency as steroid sulphatase inhibitor relative to EMATE [2]: equipotent with EMATE

Structure (SMILES): C[C@]12CC[C@@H]3c4ccc(OS(=O)(=O)O)cc4CC[C@H]3[C@@H]1CCC2=O [E1S, oestrone sulphate]
half-life in blood [3]: 10 to 12 h

Structure (SMILES): CC12CCC3c4ccc(OS(N)(=O)=O)cc4CCC3C1CCC2=O (centres unmarked) [EMATE, oestrone-3-sulphamate]
inhibition of E1-STS activity [4]: more than 99% | inhibition of rat liver E1-STS activity [5]: 99% | oral uterotrophic activity relative to estradiol ([1]; po): 100 times | inhibition of rat liver DHEA-STS activity [6]: 99%

Structure (SMILES): N#Cc1ccc(N(Cc2cccc(OS(N)(=O)=O)c2)n2cnnc2)cc1 [STX334, 4-[(3-O-Sulfamoylbenzyl)(4-cyanophenyl)amino]-4H-[1,2,4]triazole]
IC50 [7]: 5.13 µM | IC50 ([8]; intact JEG3 cells): 0.039 µM

Structure (SMILES): N#Cc1ccc(N(Cc2ccc(Br)c(OS(N)(=O)=O)c2)n2cnnc2)cc1 [STX1217, 4-[(4-Bromo-3-O-sulfamoylbenzyl)(4cyanophenyl)amino]-4H-[1,2,4]triazole]
IC50 [8]: 0.0039 µM
